Literature values as cited in patent US10300068B2, “Method of treating insomnia” (priority 2015, dated 2019).

Legend:
[1] = tested on: epicardial coronary arteries; details: patients with coronary artery disease
[2] = obese vs non-obese patients, women vs men
[3] = 20 mg, healthy adults
[4] = 40 mg non-elderly, 30 mg elderly; mild to moderate COPD, n=25
[5] = patients, assessed by questionnaire
[6] = co-administered with alcohol
intestinal P-gp = intestinal P-gp (Homo sapiens, UniProt P08183); details: concomitant administration with digoxin
[7] = Day 4, once-daily 40 mg, mild to moderate obstructive sleep apnea, n=26; 90% CI 0.22 to 5.09

Chain of intestinal P-gp (P08183 whole entry): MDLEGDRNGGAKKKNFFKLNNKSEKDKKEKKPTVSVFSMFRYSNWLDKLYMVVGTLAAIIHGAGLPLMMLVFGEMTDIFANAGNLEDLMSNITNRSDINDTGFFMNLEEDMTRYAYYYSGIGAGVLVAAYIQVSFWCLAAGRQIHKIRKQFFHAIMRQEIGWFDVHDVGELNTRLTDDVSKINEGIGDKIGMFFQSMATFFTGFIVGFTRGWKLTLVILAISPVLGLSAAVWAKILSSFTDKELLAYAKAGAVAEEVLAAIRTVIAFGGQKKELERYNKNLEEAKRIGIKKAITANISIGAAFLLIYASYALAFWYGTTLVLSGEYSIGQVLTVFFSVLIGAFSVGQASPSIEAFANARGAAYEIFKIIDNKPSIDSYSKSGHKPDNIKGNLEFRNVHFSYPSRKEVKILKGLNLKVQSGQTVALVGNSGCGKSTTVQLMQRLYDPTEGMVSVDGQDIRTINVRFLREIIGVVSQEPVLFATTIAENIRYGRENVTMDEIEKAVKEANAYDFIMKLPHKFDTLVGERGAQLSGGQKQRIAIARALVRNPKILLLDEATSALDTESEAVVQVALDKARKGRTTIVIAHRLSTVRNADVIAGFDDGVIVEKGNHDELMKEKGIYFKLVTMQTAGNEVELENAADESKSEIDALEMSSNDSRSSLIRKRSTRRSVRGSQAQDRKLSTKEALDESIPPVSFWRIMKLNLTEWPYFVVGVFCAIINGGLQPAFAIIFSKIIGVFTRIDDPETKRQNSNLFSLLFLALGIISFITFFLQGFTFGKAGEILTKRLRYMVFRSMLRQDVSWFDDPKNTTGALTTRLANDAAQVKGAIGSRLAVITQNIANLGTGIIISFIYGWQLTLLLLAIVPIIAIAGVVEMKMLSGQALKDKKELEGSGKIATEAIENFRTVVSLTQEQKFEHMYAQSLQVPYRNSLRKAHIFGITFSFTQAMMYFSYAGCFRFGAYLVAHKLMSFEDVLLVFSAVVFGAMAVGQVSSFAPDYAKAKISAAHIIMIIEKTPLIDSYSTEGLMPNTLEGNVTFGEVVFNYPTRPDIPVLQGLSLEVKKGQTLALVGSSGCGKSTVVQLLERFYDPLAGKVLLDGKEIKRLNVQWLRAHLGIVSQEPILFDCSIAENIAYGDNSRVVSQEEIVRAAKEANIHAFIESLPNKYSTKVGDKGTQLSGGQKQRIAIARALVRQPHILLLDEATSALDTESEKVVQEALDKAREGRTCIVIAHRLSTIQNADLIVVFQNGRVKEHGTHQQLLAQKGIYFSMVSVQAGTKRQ

SMILES | relaxation of epicardial coronary arteries [1] | exposure [2] | driving ability [3] | respiratory depressant effects as measured by oxygen saturation [4] | physical dependence with prolonged use (completed clinical trials) | withdrawal symptoms after discontinuation (human, in vivo) | suicidal ideation [5] | pharmacokinetics of BELSOMRA [6] | psychomotor impairment [6] | digoxin levels (intestinal P-gp) | mean Apnea/Hypopnea Index treatment difference (suvorexant-placebo) [7]
CCCc1nn(C)c2c(=O)[nH]c(-c3cc(S(=O)(=O)N4CCN(C)CC4)ccc3OCC)nc12 [sildenafil] | relax epicardial coronary arteries |  |  |  |  |  |  |  |  |  | 
Cc1ccc(-n2nccn2)c(C(=O)N2CCN(c3nc4cc(Cl)ccc4o3)CC[C@H]2C)c1 [BELSOMRA, suvorexant] |  | increased | impaired in some individuals | no respiratory depressant effects | no evidence for physical dependence | no reported withdrawal symptoms | dose-dependent increase | no alteration | additive psychomotor impairment | slightly increased | 2.7
